Values after ≈ are worked out from the molar mass of the structure shown. Read-outs that look alike come from different tables or passages of the source.
Key:
Plasmodium falciparum = test: Inhibitory effect on Plasmodium falciparum in culture (G-3H-hypoxanthine uptake); assay type: cell-based; settings: for IC50: P. falciparum culture, 36 hours, read-out: ED50 (the source's name)
Experimental: Compounds of the following formula, including compounds of formula (I), were examined for their inhibitory effect on Plasmodium falciparum. [drawing 11]
The test method was a modification of that described by Desjardins et al., Antimicrob. Agents and Chemotherapy,1979,16,710-718. Compounds were dissolved in ethanol at a concentration of 1000 mg/L and dilutions down to 1 mg/L were made. The drug solutions were serially diluted using RPMI 1640 medium+10% human plasma in microtitration plates. Parasitised and fresh red blood cells were added together with G^3 H-hypoxanthine, in RPMI 1640 medium+10% human plasma and the cultures incubated for 36 hours. Cultures were then harvested, the particulate contents collected on a glass-fibre filter paper and washed copiously with water. The filter papers were dried and the radioactivity measured using a scintillation counter. Infected untreated and uninfected untreated cultures were included as controls. Percent inhibition was correlated with dose to provide an ED50.

E. tenella = test: In vitro activity against E. tenella in cell cultures; assay type: cell-based; settings: Eimeria tenella, 96 hours, read-out: MIC (minimum inhibitory concentration)
Experimental: Compounds tested in Example 5 were assessed for their activity against E. tenella. In the method employed cell cultures were infected with sporozoite suspensions of E. tenella immediately after addition of the compounds. […] After incubation for 96 hours the cultures were fixed and the cells were stained with 0.1% toluidine blue. The stained cultures were examined microscopically for presence of parasites.

malaria = settings: background art; cited from earlier work
cyclo oxygenase = test: Enzyme assay, inhibition of cyclo oxygenase; assay type: biochemical, rabbit; settings: in vitro
lipoxygenase = test: Enzyme assay, inhibition of lipoxygenase; assay type: biochemical, rabbit; settings: in vitro
Eimeria tenella = test: In vivo anticoccidiosis screen in chicks, E. tenella; design: species or system Eimeria tenella; male Ross Ranger chicks; settings: 6 days, fifth day of infection, groups of 5
Experimental: (§1) Compounds tested in Example 7(a) were examined in an in vivo anticoccidiosis screen.
(§2) The compounds were administered to groups of 5 male Ross Ranger chicks (7 days old), at various dosages in the diet, for 6 days. The chicks were each infected with Eimeria tenella and E. acervulina one day after the beginning of the medication. The number of birds cleared of E. tenella lesions was noted on the fifth day of infection as was the presence or absence of E. acervulina oocysts in the droppings. The results are shown in Table 3, in which the numbers refer to the number of birds cleared of E. tenella and the letters indicate the presence or absence of E. acervulina /A=absent; P=present; M=95% clearance in comparision with untreated controls/.

E. acervulina = test: In vivo anticoccidiosis screen in chicks, E. acervulina; design: species or system Eimeria acervulina; male Ross Ranger chicks; key: A: absent; P: present; M: 95% clearance in comparision with untreated controls; settings: 6 days, fifth day of infection
Experimental: as §1, §2

in vivo = settings: rat, rats, oral, read-out: acute oral LD50
Experimental: The acute oral LD50 's of compounds of formula (I) in rats were determined by standard techniques.

rat eye = test: Anti-inflammatory activity in the rat eye (bacterial endotoxin induced); assay type: in vivo; settings: assessed at 24 and 48 hours
Experimental: The anti-inflammatory activity in the rat eye was determined, following both oral and topical administration, of 2-(4-t-butylcyclohexyl)-3-hydroxy-1,4-naphthoquinone. The inflammatory response for the test employed developed following injection of gram-negative bacterial endotoxin into the rat foodpad (Rosenbaum et. al Nature 286, 611-613 (1980)).
Vasodilation was assessed at 24 and 48 hours using a slit lamp, the rats then killed and the aqueous humour aspirated for determination of protein concentrations and total leucocyte numbers. The results are shown below as ED50.

CC(C)(C)C1CCC(C2=C(O)C(=O)c3ccccc3C2=O)CC1 (stereo not drawn) [4'-t-Butyl (75% trans), 2-(4'-t-butylcyclohexyl)-3-hydroxy-1,4-naphthoquinone]
IC50 (Plasmodium falciparum; 2160 min): 0.0563 nM

CC(C)(C)C1CCCC(C2=C(O)C(=O)c3ccccc3C2=O)C1 (stereo not drawn) [3'-t-Butyl (80% trans), reference compound]
IC50 (Plasmodium falciparum; Plasmodium falciparum, 36 h): 300 nM | MIC (E. tenella): 4 µM (≈ 1.25 µg/mL)

CC(C)(C)[C@H]1CC[C@H](C2=C(O)C(=O)c3ccccc3C2=O)CC1 [4'-t-Butyl (100% trans), 2-(trans-4'-t-butylcyclohexyl)-3-hydroxy-1,4-naphthoquinone]
IC50 (Plasmodium falciparum; Plasmodium falciparum, 36 h): 0.0571 nM

O=C1C(O)=C(CCCCCCCCC2CCCCC2)C(=O)c2ccccc21 [Menoctone, 2-(8-cyclohexyloctyl)-3-hydroxy-1,4-naphthoquinone, reference compound]
ED50 (Plasmodium falciparum; 36 h): 2.55×10^-7 | activity in man (in words) (malaria): poor activity in man

CC(C)(C)[C@H]1CC[C@@H](C2=C(O)C(=O)c3ccccc3C2=O)CC1 [4'-t-Butyl (100% cis), 2-(cis-4'-t-butylcyclohexyl)-3-hydroxy-1,4-naphthoquinone]
IC50 (Plasmodium falciparum; Plasmodium falciparum, 36 h): 1.08 nM | MIC (E. tenella): 0.025 µM (≈ 0.00781 µg/mL)

CCC(C)(C)C1CCC(C2=C(O)C(=O)c3ccccc3C2=O)CC1 (stereo not drawn) [4'-t-Pentyl (50% trans), 2-hydroxy-3-(4'-t-pentylcyclohexyl)-1,4-naphthoquinone]
MIC (E. tenella): 0.0096 µM (≈ 0.00313 µg/mL)

C[C@H]1CC[C@H](C2=C(O)C(=O)c3ccccc3C2=O)CC1 [4'-Methyl (100% trans), reference compound]
IC50 (Plasmodium falciparum; Plasmodium falciparum, 36 h): 9.2 nM | MIC (E. tenella): 0.46 µM (≈ 0.124 µg/mL)

CCC(C)(C)C1CCC(C2=C(O)C(=O)c3ccccc3C2=O)CC1 (stereo not shown) [2-hydroxy-3-(4'-t-pentylcyclohexyl)-1,4-naphthoquinone]
IC50 (cyclo oxygenase): 63000 nM | IC50 (lipoxygenase): 29000 nM

CC(C)(C)C1CCC(C2=C(O)C(=O)c3ccccc3C2=O)CC1 (stereo not drawn) [4'-t-Butyl (80% trans), 2-(4'-t-butylcyclohexyl)-3-hydroxy-1,4-naphthoquinone]
IC50 (Plasmodium falciparum; 2160 min): 0.0375 nM | MIC (E. tenella): 0.01 µM (≈ 0.00312 µg/mL) | number of birds cleared of E. tenella lesions (Eimeria tenella; 50 ppm in diet): 0/5 | number of birds cleared of E. tenella lesions (Eimeria tenella; 100 ppm in diet): 5/5 | presence or absence of E. acervulina oocysts in the droppings (E. acervulina; 50 ppm in diet): P | presence or absence of E. acervulina oocysts in the droppings (E. acervulina; 100 ppm in diet): A

O=C1C(O)=C([C@H]2CC[C@H](C3CCCCC3)CC2)C(=O)c2ccccc21 [4'-Cyclohexyl (100% trans), reference compound]
IC50 (Plasmodium falciparum; Plasmodium falciparum, 36 h): 4.05 nM | MIC (E. tenella): 0.092 µM (≈ 0.0311 µg/mL) | number of birds cleared of E. tenella lesions (Eimeria tenella; 50 ppm in diet): 1/5 | number of birds cleared of E. tenella lesions (Eimeria tenella; 100 ppm in diet): 5/5 | number of birds cleared of E. tenella lesions (Eimeria tenella; 200 ppm in diet): 5/5 | presence or absence of E. acervulina oocysts in the droppings (E. acervulina; 50 ppm in diet): P | presence or absence of E. acervulina oocysts in the droppings (E. acervulina; 100 ppm in diet): P | presence or absence of E. acervulina oocysts in the droppings (E. acervulina; 200 ppm in diet): A

CCC(C)(C)C1CCC(C2=C(O)C(=O)c3ccccc3C2=O)CC1 (stereo not drawn) [4'-t-Pentyl (60% trans), 2-hydroxy-3-(4'-t-pentylcyclohexyl)1,4-naphthoquinone]
IC50 (Plasmodium falciparum; Plasmodium falciparum, 36 h): 0.06 nM | number of birds cleared of E. tenella lesions (Eimeria tenella; 50 ppm in diet): 4/5 | number of birds cleared of E. tenella lesions (Eimeria tenella; 100 ppm in diet): 5/5 | number of birds cleared of E. tenella lesions (Eimeria tenella; 200 ppm in diet): 5/5 | presence or absence of E. acervulina oocysts in the droppings (E. acervulina; 50 ppm in diet): M (95% clearance in comparision with untreated controls) | presence or absence of E. acervulina oocysts in the droppings (E. acervulina; 100 ppm in diet): A | presence or absence of E. acervulina oocysts in the droppings (E. acervulina; 200 ppm in diet): A

CC(C)(C)C1CCC(C2=C(O)C(=O)c3ccccc3C2=O)CC1 (stereo not drawn) [4'-t-Butyl (50% trans), 2-(4'-t-butylcyclohexyl)-3-hydroxy-1,4-naphthoquinone]
IC50 (Plasmodium falciparum; 2160 min): 0.599 nM

CC(C)(C)C1CCC(C2=C(O)C(=O)c3ccccc3C2=O)CC1 (stereo not shown) [2-(4'-t-butylcyclohexyl)-3-hydroxy-1,4-naphthoquinone]
LD50 (in vivo): > 1000 mg/kg | IC50 (cyclo oxygenase): 58000 nM | IC50 (lipoxygenase): 23000 nM | ED50 (rat eye; Rattus norvegicus, oral): 5 to 25 mg/kg | ED50, anti-inflammatory activity in the rat eye (rat eye; topical): 10-20 ug/eye

Source: patent publication US4485117A, “Antiprotozoal compounds” (priority 1981, dated 1984)
